In patent US11370847B2, “Single domain antibodies directed against intracellular antigens” (Singh Biotechnology, LLC, priority 2014, dated 2022):
“And” between values parts separate entries of the source, which are not always exact repeats. Identical values can stand only once. Like-named read-outs stand apart in the source and are kept apart here.

How the values were obtained:
[1] = system: MDA-MB-231 xenograft; settings: for Individual Tumor Measurements: listed as anti-STAT3 bacterial VHH13
[2] = system: EBOv (Makon); settings: HFF; EBOV (Makona); 48 hours
[3] = Group 3, 2 mg/kg IP BID×14, day 29 (7/2/15)
[4] = Group 3, 2 mg/kg IP BID×14, day 33 (7/6/15)
[5] = Group 3, 2 mg/kg IP BID×14, day 36 (7/9/15)
[6] = Group 3, 2 mg/kg IP BID×14, day 42 (7/15/15)
[7] = Group 4, 2 mg/kg IP QD×14, day 20 (6/23/15)
[8] = Group 4, 2 mg/kg IP QD×14, day 23 (6/26/15)
[9] = Group 4, 2 mg/kg IP QD×14, day 26 (6/29/15)
[10] = Group 4, 2 mg/kg IP QD×14, day 29 (7/2/15)
[11] = Group 4, 2 mg/kg IP QD×14, day 33 (7/6/15)
[12] = Group 4, 2 mg/kg IP QD×14, day 36 (7/9/15)
[13] = Group 4, 2 mg/kg IP QD×14, day 42 (7/15/15)

Substance: anti-STAT3 VHH13: anti-STAT3 single-domain antibody, SEQ ID NO:3; bacterially produced, referred to as SBT-100
- % Inhibition Median [1, 3]: 74.17%
- Tumor Mean Absolute [1, 3]: 45.95 mm^3
- Tumor Median Absolute [1, 3]: 43.07 mm^3
- Individual Tumor Measurements [1, 3]: 31.76 mm^3 and 80.69 mm^3 and 54.38 mm^3 and 16.99 mm^3
- % Inhibition Mean [1, 4]: 73.69%
- % Inhibition Median [1, 4]: 72.49%
- Tumor Mean Absolute [1, 4]: 58.27 mm^3
- Tumor Median Absolute [1, 4]: 56.29 mm^3
- Individual Tumor Measurements [1, 4]: 34.11 mm^3 and 110.72 mm^3 and 78.47 mm^3 and 9.78 mm^3
- % Inhibition Mean [1, 5]: 75.18%
- % Inhibition Median [1, 5]: 71.22%
- Tumor Mean Absolute [1, 5]: 59.21 mm^3
- Tumor Median Absolute [1, 5]: 64.51 mm^3
- Individual Tumor Measurements [1, 5]: 50.33 mm^3 and 89.11 mm^3 and 78.68 mm^3 and 18.71 mm^3
- % Inhibition Mean [1, 6]: 83.89%
- % Inhibition Median [1, 6]: 85.17%
- Tumor Mean Absolute [1, 6]: 41.15 mm^3
- Tumor Median Absolute [1, 6]: 35.89 mm^3
- Individual Tumor Measurements [1, 6]: 18.94 mm^3 and 73.89 mm^3 and 51.30 mm^3 and 20.48 mm^3
- growth delay ([1]; Group 3: 2 mg/kg bw IP BID×14): 9.52 days
- mean growth inhibition ([1]; Group 3: 2 mg/kg bw IP BID×14): 75.2
- mean tumor size (±S.E.) at termination (day 42) ([1]; Group 3: 2 mg/kg bw IP BID×14): 41.15±13.21
- mean tumor size (±SE) at day 14 of dosing ([1]; Group 3: 2 mg/kg bw IP BID×14): 58.27±22.54
- % treatment/control ([1]; Group 3: 2 mg/kg bw IP BID×14, (tumor regression)): −54.4%
- tumor doubling time ([1]; Group 3: 2 mg/kg bw IP BID×14, control 20.56 days): 30.07 days
- % Inhibition Mean [1, 7]: −14.18%
- % Inhibition Median [1, 7]: −1.80%
- Tumor Mean Absolute [1, 7]: 105.60 mm^3
- Tumor Median Absolute [1, 7]: 100.88 mm^3
- Individual Tumor Measurements [1, 7]: 88.56 mm^3 and 78.73 mm^3 and 113.20 mm^3 and 141.91 mm^3
- % Inhibition Mean [1, 8]: 32.37%
- % Inhibition Median [1, 8]: 16.23%
- Tumor Mean Absolute [1, 8]: 93.99 mm^3
- Tumor Median Absolute [1, 8]: 96.82 mm^3
- Individual Tumor Measurements [1, 8]: 108.35 mm^3 and 51.51 mm^3 and 85.29 mm^3 and 130.82 mm^3
- % Inhibition Mean [1, 9]: 54.06%
- % Inhibition Median [1, 9]: 43.65%
- Tumor Mean Absolute [1, 9]: 79.20 mm^3
- Tumor Median Absolute [1, 9]: 78.40 mm^3
- Individual Tumor Measurements [1, 9]: 105.80 mm^3 and 54.20 mm^3 and 69.30 mm^3 and 87.49 mm^3
- % Inhibition Mean [1, 10]: 46.13%
- % Inhibition Median [1, 10]: 38.19%
- Tumor Mean Absolute [1, 10]: 105.54 mm^3
- Tumor Median Absolute [1, 10]: 103.05 mm^3
- Individual Tumor Measurements [1, 10]: 102.94 mm^3 and 70.39 mm^3 and 103.16 mm^3 and 145.68 mm^3
- % Inhibition Mean [1, 11]: 40.66%
- % Inhibition Median [1, 11]: 36.92%
- Tumor Mean Absolute [1, 11]: 131.44 mm^3
- Tumor Median Absolute [1, 11]: 129.05 mm^3
- Individual Tumor Measurements [1, 11]: 183.39 mm^3 and 84.29 mm^3 and 103.20 mm^3 and 154.89 mm^3
- % Inhibition Mean [1, 12]: 55.94%
- % Inhibition Median [1, 12]: 54.32%
- Tumor Mean Absolute [1, 12]: 105.10 mm^3
- Tumor Median Absolute [1, 12]: 102.39 mm^3
- Individual Tumor Measurements [1, 12]: 159.78 mm^3 and 55.83 mm^3 and 87.15 mm^3 and 117.63 mm^3
- % Inhibition Mean [1, 13]: 43.03%
- % Inhibition Median [1, 13]: 48.55%
- Tumor Mean Absolute [1, 13]: 145.51 mm^3
- Tumor Median Absolute [1, 13]: 124.47 mm^3
- Individual Tumor Measurements [1, 13]: 291.06 mm^3 and 42.03 mm^3 and 130.64 mm^3 and 118.31 mm^3
- growth delay ([1]; Group 4: 2 mg/kg bw IP QD×14): 6.61 days
- mean growth inhibition ([1]; Group 4: 2 mg/kg bw IP QD×14): 55.9
- mean tumor size (±S.E.) at termination (day 42) ([1]; Group 4: 2 mg/kg bw IP QD×14): 145.51±52.32
- mean tumor size (±SE) at day 14 of dosing ([1]; Group 4: 2 mg/kg bw IP QD×14): 131.44±22.86
- % treatment/control ([1]; Group 4: 2 mg/kg bw IP QD×14, (tumor inhibition)): 10.28%
- tumor doubling time ([1]; Group 4: 2 mg/kg bw IP QD×14, control 20.56 days): 27.17 days
- mean tumor size (±S.E.) at termination (day 28) ([1]; SBT-100 5 mg/kg bw i.p. BID×14): 91.72±33.17
- mean tumor size (±SE) at last day of dosing (Day 14) ([1]; SBT-100 5 mg/kg bw i.p. BID×14): 83.81±22.65
- % treatment/control ([1]; SBT-100 5 mg/kg bw i.p. BID×14, (tumor inhibition)): 13.35%
- tumor doubling time ([1]; SBT-100 5 mg/kg bw i.p. BID×14, control […] days): 111.6 days
- mean tumor growth inhibition at the end of the study ([1]; SBT-100 5 mg/kg bw i.p. BID×14, p=0.006): 85.8%
- EC50 [2]: 38.36 ug/m
- EC90 [2]: 66.43 µg/mL
